Data taken from the CheMixHub ionic liquid set.

Assay: xn = mol fraction of the nth substance listed
Conditions: 101 kPa, frequency 0.001 MHz

CCCCCCCCCCCCCCn1cc[n+](C)c1.[Br-] + CC[N+](CC)(CC)CC.[Br-] + O
electrical conductivity [S/m]
Conditions | 298.15 K | 308.15 K
x1 = 4.74e-06, x2 = 0 | 0.00249 | 0.00401
x1 = 4.74e-06, x2 = 1.802e-05 | 0.0133 | 0.0165
x1 = 4.74e-06, x2 = 3.604e-05 | 0.0213 | 0.0264
x1 = 4.74e-06, x2 = 9.009e-05 | 0.0427 | 0.053
x1 = 9.35e-06, x2 = 0 | 0.00459 | 0.00671
x1 = 9.35e-06, x2 = 1.802e-05 | 0.0152 | 0.0187
x1 = 9.36e-06, x2 = 3.604e-05 | 0.023 | 0.0283
x1 = 9.36e-06, x2 = 9.009e-05 | 0.0444 | 0.0542
x1 = 1.386e-05, x2 = 0 | 0.0065 | 0.0093
x1 = 1.386e-05, x2 = 1.802e-05 | 0.017 | 0.0209
x1 = 1.386e-05, x2 = 3.604e-05 | 0.0249 | 0.0306
x1 = 1.387e-05, x2 = 9.009e-05 | 0.0459 | 0.056
x1 = 1.825e-05, x2 = 0 | 0.00834 | 0.011
x1 = 1.826e-05, x2 = 1.802e-05 | 0.0185 | 0.0231
x1 = 1.826e-05, x2 = 3.604e-05 | 0.0264 | 0.0325
x1 = 1.827e-05, x2 = 9.009e-05 | 0.0472 | 0.058
x1 = 2.252e-05, x2 = 0 | 0.0101 | 0.0135
x1 = 2.253e-05, x2 = 1.802e-05 | 0.0201 | 0.0251
x1 = 2.253e-05, x2 = 3.604e-05 | 0.0281 | 0.0343
x1 = 2.255e-05, x2 = 9.009e-05 | 0.0479 | 0.0594
x1 = 2.669e-05, x2 = 0 | 0.0119 | 0.0154
x1 = 2.669e-05, x2 = 1.802e-05 | 0.0216 | 0.0268
x1 = 2.67e-05, x2 = 3.604e-05 | 0.0295 | 0.0364
x1 = 2.671e-05, x2 = 9.009e-05 | 0.049 | 0.0611
x1 = 3.076e-05, x2 = 0 | 0.0136 | 0.0173
x1 = 3.077e-05, x2 = 1.802e-05 | 0.0232 | 0.0286
x1 = 3.077e-05, x2 = 3.604e-05 | 0.0307 | 0.0381
x1 = 3.079e-05, x2 = 9.009e-05 | 0.0493 | 0.0618
x1 = 3.474e-05, x2 = 0 | 0.0152 | 0.0199
x1 = 3.475e-05, x2 = 1.802e-05 | 0.0248 | 0.0305
x1 = 3.475e-05, x2 = 3.604e-05 | 0.0315 | 0.0399
x1 = 3.477e-05, x2 = 9.009e-05 | 0.0495 | 0.0619
x1 = 3.862e-05, x2 = 0 | 0.0167 | 0.0218
x1 = 3.862e-05, x2 = 1.802e-05 | 0.0261 | 0.0324
x1 = 3.863e-05, x2 = 3.604e-05 | 0.0318 | 0.0405
x1 = 3.865e-05, x2 = 9.009e-05 | 0.0494 | 0.0621
x1 = 4.24e-05, x2 = 0 | 0.0183 | 0.0238
x1 = 4.241e-05, x2 = 1.802e-05 | 0.0265 | 0.0333
x1 = 4.242e-05, x2 = 3.604e-05 | 0.0322 | 0.0409
x1 = 4.244e-05, x2 = 9.009e-05 | 0.0497 | 0.0622
x1 = 4.613e-05, x2 = 0 | 0.0192 | 0.0252
x1 = 4.614e-05, x2 = 1.802e-05 | 0.0271 | 0.034
x1 = 4.615e-05, x2 = 3.604e-05 | 0.0326 | 0.0414
x1 = 4.617e-05, x2 = 9.009e-05 | 0.0499 | 0.0623
x1 = 4.973e-05, x2 = 0 | 0.0199 | 0.0265
x1 = 4.974e-05, x2 = 1.802e-05 | 0.0274 | 0.0345
x1 = 4.975e-05, x2 = 3.604e-05 | 0.0329 | 0.0419
x1 = 4.978e-05, x2 = 9.009e-05 | 0.05 | 0.0627
x1 = 5.334e-05, x2 = 0 | 0.0204 | –
x1 = 5.335e-05, x2 = 1.802e-05 | 0.0278 | –
x1 = 5.336e-05, x2 = 3.604e-05 | 0.0333 | –
x1 = 5.339e-05, x2 = 9.009e-05 | 0.0501 | –
x1 = 5.676e-05, x2 = 0 | 0.0209 | –
x1 = 5.677e-05, x2 = 1.802e-05 | 0.0283 | –
x1 = 5.678e-05, x2 = 3.604e-05 | 0.0336 | –
x1 = 5.681e-05, x2 = 9.009e-05 | 0.0503 | –
x1 = 6e-05, x2 = 0 | 0.0213 | –
x1 = 6.001e-05, x2 = 1.802e-05 | 0.0286 | –
x1 = 6.003e-05, x2 = 3.604e-05 | 0.0338 | –
x1 = 6.006e-05, x2 = 9.009e-05 | 0.0505 | –
x1 = 6.343e-05, x2 = 0 | 0.0217 | –
x1 = 6.344e-05, x2 = 1.802e-05 | 0.0289 | –
x1 = 6.345e-05, x2 = 3.604e-05 | 0.0341 | –
x1 = 6.349e-05, x2 = 9.009e-05 | 0.0507 | –
x1 = 6.667e-05, x2 = 0 | 0.0221 | –
x1 = 6.668e-05, x2 = 1.802e-05 | 0.0293 | –
x1 = 6.67e-05, x2 = 3.604e-05 | 0.0344 | –
x1 = 6.673e-05, x2 = 9.009e-05 | 0.0508 | –
x1 = 6.973e-05, x2 = 0 | 0.0225 | –
x1 = 6.975e-05, x2 = 1.802e-05 | 0.0296 | –
x1 = 6.976e-05, x2 = 3.604e-05 | 0.0346 | –
x1 = 6.98e-05, x2 = 9.009e-05 | 0.0511 | –
x1 = 7.28e-05, x2 = 0 | 0.0229 | –
x1 = 7.281e-05, x2 = 1.802e-05 | 0.0299 | –
x1 = 7.282e-05, x2 = 3.604e-05 | 0.0349 | –
x1 = 7.287e-05, x2 = 9.009e-05 | 0.0512 | –
x1 = 7.586e-05, x2 = 0 | 0.0233 | –
x1 = 7.587e-05, x2 = 1.802e-05 | 0.0302 | –
x1 = 7.589e-05, x2 = 3.604e-05 | 0.0351 | –
x1 = 7.593e-05, x2 = 9.009e-05 | 0.0516 | –
x1 = 7.892e-05, x2 = 0 | 0.0236 | –
x1 = 7.894e-05, x2 = 1.802e-05 | 0.0304 | –
x1 = 7.895e-05, x2 = 3.604e-05 | 0.0353 | –
x1 = 7.9e-05, x2 = 9.008e-05 | 0.0519 | –
x1 = 8.18e-05, x2 = 0 | 0.024 | –
x1 = 8.182e-05, x2 = 1.802e-05 | 0.0307 | –
x1 = 8.184e-05, x2 = 3.604e-05 | 0.0356 | –
x1 = 8.188e-05, x2 = 9.008e-05 | 0.0522 | –
x1 = 8.451e-05, x2 = 0 | 0.0243 | –
x1 = 8.452e-05, x2 = 1.802e-05 | 0.0308 | –
x1 = 8.454e-05, x2 = 3.604e-05 | 0.0358 | –
x1 = 8.459e-05, x2 = 9.008e-05 | 0.0524 | –
x1 = 8.739e-05, x2 = 0 | 0.0246 | –
x1 = 8.741e-05, x2 = 1.802e-05 | 0.0312 | –
x1 = 8.742e-05, x2 = 3.604e-05 | 0.036 | –
x1 = 8.747e-05, x2 = 9.008e-05 | 0.0526 | –
